{"source": "patent US12134664B2", "about": "“Muramyl peptide derivatives” (Bharat Biotech International Limited, priority 2015, dated 2024)", "key": {"J774.2A cells": {"test_system": "J774.2A cells", "assay": "Cytotoxicity assay (MTT)", "format": "cell-based", "details": "24 hrs, read-out: IC50 (50% cell death or toxicity)", "description": "Details of an assay are as explained in example 2.2.\nJ774.2A cells (2×10^4/well) were plated and incubated overnight. Next day, cells were treated with various concentrations of MDP-ET (10 fold dilutions with a concentration ranging from 0.005 mg/ml to 0.5 mg/ml & 2 mg/ml) and cultured for 24 hrs. Supernatant was discarded and cells were treated with 100 μl of MTT [3-(4,5-Dimethylthiazol-2-yl)-2,5-Diphenyltetrazolium Bromide] (5 mg/ml) and incubated for 3-4 hrs until formozan crystals were formed. Later, supernatant was discarded and crystals were dissolved with DMSO for 5-10 min. Absorbance was read at 540 nm. FIG. 2 represents cell toxicity effect of MDP-ET. X-axis represents concentration in log scale and Y-axis represents % toxicity."}, "splenocytes": {"test_system": "splenocytes", "assay": "Splenocyte proliferation of immunized mice (MTT)", "format": "in vivo", "details": "LPS and Con A", "description": "Spleens were isolated from immunized mice and were processed to single cell suspension. 96 well flat bottom Micro titer plates were seeded with 1×10^5 cells/well with RPMI1640 media. Cells were treated with OVA. Con A (2 μg/mL) and LPS (10 μg/mL) or medium with a final volume of 200 μl. Plates were incubated at 37° C. with 5% CO2 in an incubator. After 48 h of incubation 20 μl of Triazolyl blue Tetrazolium Bromide (MTT) solution was added to each well, incubated for next 4 h. Untransformed MTT was removed from each well by aspirating the supernatant (180 μL) and replaced with DMSO. The absorbance was read at 570 nm after 15 min.\nImmunostimulating substances act through specific (antigen-dependent) T lymphocytes, B lymphocytes, and dendritic cells and also through non-specific mechanisms of action (antigen-independent) that involves granulocytes, macrophages, and NK cells. Being a secondary lymphoid organ, spleen contains a heterogeneous population of lymphocytes to examine the immunostimulant activity. However, proliferations of immune cells like T and B cells are the benchmark for immune potentiation. Mice were immunized with or without OVA or in combination with MDP and MDP-ET. Type of immune response in all treated groups was measured with LPS and Con-A splenocyte proliferation assays depicted in Figure: 3. […] This is essential for B cell expansion."}, "[1]": {"test_system": "Total IgG1 and IgG2a antibodies", "assay": "Total IgG1 and IgG2a in sera of OVA-immunized mice (sandwich ELISA)", "format": "in vivo, BALB/c mice", "details": "OVA-immunized mice", "description": "Male BALB/c mice were immunized subcutaneously with OVA 100 μg alone or with OVA 100 μg dissolved in saline containing the MDP or MDP-ET analogues (7.5, 15 or 30 μg) on Days 1 and 15. Sera were collected 2 weeks after the last immunization. Total IgG1 and IgG2a antibodies in the sera were measured by Sandwich ELISA.\nMeasurement of total IgG subtypes such as IgG1 and IgG2a are useful to assess type immunity produced. In mice, IgG1 is integrated with Th2-type response, while Th1-type response is integrated with the production of IgG2a, IgG2b, and IgG3 antibodies. Antibody subclass is indispensable for complement fixation and provides protection. IgG2a and IgG2b can fix the complement stronger than IgG1. Vaccine adjuvants showing broad subclass distribution is beneficial against pathogens. […] But, it didn't induce much significant IgG1 response i.e., Th2 type, than MDP+OVA group."}, "[2]": {"test_system": "HBsAg specific IgG antibody", "assay": "Endpoint titer of HBsAg specific total IgG by ELISA after immunization", "format": "in vivo, BALB/c mice", "details": "for HBsAg specific IgG antibody endpoint titer: i.m. Day 0 & 28, Day 42 sera", "description": "Female BALB/c mice (6-8 week old, n=6/group) were vaccinated intramuscularly (i.m, at two quadriceps) on Day 0 & Day 28 with vehicle control or Hepatitis B antigen (20 μg/mouse/dose/100 μl, 50 μl per quadricep) with and without MDP-ET (10 μg or 50 μg/mouse/dose/100 μl) diluted in Phosphate buffered saline. Prior to immunization, Hepatitis B surface antigen was mixed with MDP-ET, by gentle agitation (1:1 ratio), under sterile conditions. Mice were bled and euthanized on Day 42. Blood was collected & serum was isolated to evaluate analyze antigen specific total IgG antibody titer (as in example 3.1.2) and antibody subclasses (isotypes namely IgG1 or IgG2a or IgG3, as in example 3.1.3).\nSerial dilutions of individual serum samples ([…] ranging from 1:50 to 819200) were used to determine the endpoint titer of antigen specific total IgG antibody titer by ELISA. Details of assay protocol as described below, For analysis of antigen specific antibody titer, hepatitis B surface antigen was suspended in 50 mM carbonate bicarbonate buffer, pH 9.6 and coated at a concentration (lug/ml, 100 μl/well) in 96 well plates and kept at 4° C. for overnight. Next day, plates were washed with washing buffer (PBST-Phosphate buffered saline, pH 7.4 with 0.05% Tween) and blocked with blocking buffer (PBS with 1% BSA) at RT for 1-2 hr. ELISA plates were washed again with wash buffer (PBS, 0.1% Tween™20) and added serially diluted (in PBS, 0.1% BSA, 0.05% Tween™20, 0.02% sodium azide) sera from hyper immunized mice and incubated at RT for 1 hr. After incubation, wells were again washed and added Goat Anti-mouse IgG HRP conjugate antibody at a dilution of 1:5000 & incubated for 1 hr at RT. Later, wells were washed, and developed with OPD (O-phenylene diamine) as a substrate for 15 min. Reaction was stopped using 2N H2SO4. Absorbance was read at 490 nm. Threshold (Mean+3SD) was established by taking the absorbance of negative control (PBS) group, followed by the reactive index (ratio of absorbance at a particular dilution & threshold), so as to determine end point titer. Based on this calculation, highest dilution at which reactive index value[…] was considered as endpoint antibody titer dilution. Antigen specific antibody endpoint titer in the presence & absence of MDP-ET was represented as in FIG. 5a."}}, "data": [{"smiles": "CCOC(=O)N[C@H]1C(O)O[C@H](CO)[C@@H](O)[C@@H]1O[C@H](C)C(=O)N[C@@H](C)C(=O)N[C@H](CCC(=O)O)C(N)=O", "note": "(stereo partly drawn) [MDP-ET, (4R)-5-amino-4-((2S)-2-((2R)-2-(((3R,4R,5S,6R)-3-((ethoxycarbonyl)amino)-2,5-dihydroxy-6-(hydroxymethyl)tetrahydro-2H-pyran-4-yl)oxy)propanamido)propanamido)-5-oxopentanoic acid]", "values": [{"measurement": "IC50", "setting": "J774.2A cells", "result": 410, "unit": "mg/L"}, {"measurement": "Splenocyte proliferation", "setting": "splenocytes", "result": "inducing the LPS mediated splenocyte proliferation"}, {"measurement": "Th1:Th2 index from antibody titer of ova specific IgG subclasses", "setting": "[1]", "result": 1}, {"measurement": "increase of HBsAg specific IgG antibody titer versus HBsAg alone", "setting": "[2]; MDP-ET 10 μg/mouse", "result": 4, "unit": "fold"}, {"measurement": "HBsAg specific IgG antibody endpoint titer", "setting": "[2]; MDP-ET 10 μg/mouse + HBsAg 20 μg", "result": 51200, "unit": "dilution"}, {"measurement": "increase of HBsAg specific IgG antibody titer versus HBsAg alone", "setting": "[2]; MDP-ET 50 μg/mouse", "result": 8, "unit": "fold"}, {"measurement": "HBsAg specific IgG antibody endpoint titer", "setting": "[2]; MDP-ET 50 μg/mouse + HBsAg 20 μg", "result": 204800, "unit": "dilution"}, {"measurement": "increase of humoral response (TH2), dose dependent", "setting": "[2]; mice vaccinated with HBsAg in the presence of MDP-ET (10 and 50 μg/mouse)", "result": "4-8 fold"}]}]}
